From US20220220206A1, “TREATING CHRONIC LIVER DISEASE” (Mayo Foundation for Medical Education and Research, priority 2019, published 2022)

What was measured:
[1] = system: FFC diet-fed C57BL/6J mice (diet-induced NASH); experiment: FFC diet-induced NASH mouse model, VCAM-1 blockade (antibody or AGI-1067); assay type: in vivo; settings: AGI-1067 25 mg/kg i.p. daily for 15 days, vs vehicle
Excerpt: C57BL/6J male mice were purchased from Jackson Laboratory (Bar Harbor, Me.). Mice were housed and bred in a temperature-controlled 12:12-hour light-dark cycle facility with free access to diet. The mice were fed either a chow diet (5053 PicoLab Rodent Diet 20, LabDiet, St Louis, Mo.) or a diet rich in fat, fructose, and cholesterol (FFC) at 8-weeks old for 24 weeks. FFC diet consists of 40% energy as fat (12% saturated fatty acid, 0.2% cholesterol) (AIN-76A Western Diet, TestDiet, St Louis, Mo.), with fructose (23.1 g/L) and glucose (18.9 g/L) in the drinking water. The FFC diet induces steatohepatitis with pronounced hepatocellular ballooning, lipoapoptosis, and progressive fibrosis with a high fidelity to the human NASH histology and metabolic profile. At 20 weeks on the diet, the mice were randomized to receive either anti-VCAM-1 neutralizing antibody (M/K-2.7), (Genetex, GTX14360) or IgG isotype antibody (BE0088, InVivoMAb). Mice were injected with 10 mg/kg body weight of either of the antibodies intraperitoneally, twice per week for 4 weeks. Another cohort of Chow or FFC diet-fed mice was randomized to receive either vehicle or VCAM-1 inhibitor succinobucol (AGI-1067). Mice were injected with either vehicle or 25 mg/kg body weight of AGI-1067 intraperitoneally, daily for 15 days. Total caloric intake at the 3rd week of VCAM-1 antibody treatment and the first week of AGI-1067 treatment was calculated based on the weight of food and drinking water consumption. At the third week of anti-VCAM-1 neutralizing antibody treatment, metabolic parameters, including oxygen consumption, carbon dioxide production, and locomotor activity, were measured using a Comprehensive Lab Animal Monitoring System (CLAMS, Columbus Instruments, OH). Anti-VCAM-1 antibody from Bio Xcell (West Lebanon, N.H.), (BE0027) was used for the CLAMS study. Blood glucose levels and plasma insulin levels were measured using Assure 4 (Arkray, Edina, Minn.) and Ultra-Sensitive Mouse Insulin enzyme-linked immunosorbent assay (ELISA) kit (Crystal Chem Inc., Downers Grove, Ill.), respectively. Homeostasis model assessment of insulin resistance (HOMA-IR) was calculated by using the following formula: HOMA-IR=26×fasting insulin level (ng/mL)×fasting glucose level (mg/dL)/405. Mice were sacrificed under general anesthesia induced by a ketamine/xylazine cocktail (83 mg/kg ketamine, 16 mg/kg xylazine, intraperitoneal injection). All interventions were made during the light cycle. Blood and liver samples were collected for further study.
Liver triglyceride levels were measured in mouse liver homogenates. Fifty milligrams of liver tissue was homogenized in a 5% NP-40 solution. EnzyChrom Triglyceride Kit (BioAssay System, CA) was used for the assay according to the manufacturer's instruction. Photometric absorbance was read at 570 nm using a Synergy H1 microplate reader (BioTek). Serum alanine aminotransferase (ALT) levels were measured by VetScan2 (Abaxis Veterinary Diagnostics, Union City, Calif.).
Liver histology was performed using tissue fixed in 10% formalin, dehydrated, and embedded in paraffin. Hematoxylin and eosin (H&E) staining and Sirius red staining were performed. Severity of NASH was assessed using nonalcoholic fatty liver disease (NAFLD) activity score (NAS), a semi-quantitative score that accounts for steatosis, ballooned hepatocytes, and lobular inflammation. Terminal deoxynucleotidyl transferase deoxyuridine triphosphate nick-end labeling (TUNEL) assay was performed using the ApopTag Peroxidase In Situ Apoptosis Detection Kit (Millipore Sigma, St. Louis, Mo.); diaminobenzidine (DAB) was used as a peroxidase substrate (Vector Laboratories, Burlingame, Calif.); 0.5% methyl green was used for the counterstain. […]

[2] = system: VCAM-1 expression in TSEC; experiment: Palmitate-induced VCAM-1 expression in TSEC; assay type: cell-based, mouse; settings: 500 μM PA, 16 hours
Experimental: Transformed mouse liver sinusoidal endothelial cells (TSEC) were obtained. Primary human liver sinusoidal endothelial cells (LSEC) were purchased from ScienCell Research Laboratories (San Diego, Calif.). To yield primary mouse LSECs, cell suspensions obtained with liver collagenase perfusion were centrifuged at 50 g for 2 minutes to remove hepatocytes. The supernatant which includes non-parenchymal cells was subjected to LSEC isolation using CD146 MicroBeads (Miltenyi Biotec, Bergisch Gladbach, Germany) following the manufacture's instruction. […]
Cells were lysed using RIPA buffer (50 mM Tris-HCl, pH 7.4; 1% Nonidet P-40; 0.25% sodium deoxycholate; 150 mM NaCl; 1 mM EDTA with protease inhibitors) followed by centrifugation at 15,000 g for 15 minutes at 4° C. Protein concentrations of the lysates were measured by the Bradford assay method (Sigma-Aldrich). […] Proteins were detected using enhanced chemiluminescence reagents (GE Healthcare, Chicago, Ill.). β-actin and GAPDH protein levels were used as loading controls.
Total RNA was isolated with the RNeasy Mini Kit (Qiagen, Valencia, Calif.) and was reverse transcribed with moloney murine leukemia virus reverse transcriptase and oligo-dT random primers (both from Invitrogen, CA, USA). Quantification of gene expression was performed by real-time PCR using SYBR green fluorescence on a LightCycler 480 instrument (Roche Applied, IN, USA). […]

[3] = system: active ITGβ1 in Huh7 cells; experiment: LPC-induced ITGβ1 activation in Huh7 cells (immunoprecipitation/immunoblot, immunofluorescence); assay type: cell-based, human; settings: 10 μM SB203580
Experimental: Whole cell lysates (WCL) were obtained using immuno-precipitate (IP) buffer (50 mM Tris-HCl, pH 7.4; 1% Nonidet P-40; 150 mM NaCl) with protease inhibitor and phosphatase inhibitor followed by centrifugation at 15,000 g for 15 minutes at 4° C. Protein concentrations of the lysates were measured by the Bradford assay method (Sigma-Aldrich). In pull-down experiments, aliquots containing 1 mg of protein were incubated with either anti-ITGβ1 (MAB13), anti-ITGβ1 (9EG7) antibody or isotype IgG control antibody for 1 hour at 4° C., then incubated overnight with protein G sepharose beads (GE Healthcare) under rotary agitation. Pelleted proteins were washed with IP buffer for seven times, solubilized in SDS sample buffer, boiled for 10 minutes, and then subjected to SDS-PAGE and immunoblot analysis.
Huh7 cells were seeded on fibronectin-coated coverslips and fixed with 4% paraformaldehyde following LPC treatment. After permeabilization using 0.2% TritonX-100, the cells were blocked using blocking buffer (5% bovine serum albumin, 0.1% glycine in PBS) for one hour at room temperature, and then incubated with the primary antibody of interest overnight at 4° C. […] Pearson's correlation coefficient of co-localization was employed to quantify the degree of colocalization between fluorophores. Ten to 20 random fields in each group were selected for quantification and statistical analysis.

Row | Structure (SMILES) | MoMF-related hepatic inflammation by Galectin-3 staining of liver sections [1] | NAS score [1] | hepatic mRNA expression of Acta2 (α-SMA) [1] | hepatic mRNA expression of Ccr2 [1] | hepatic mRNA expression of Cd68 [1] | hepatic mRNA expression of Col1α1 [1] | hepatic mRNA expression of Tnfα [1] | hepatic steatosis [1] | liver injury as number of TUNEL positive hepatocyte [1] | liver triglyceride content [1] | plasma ALT levels [1] | stellate cell activation and liver fibrogenesis by Sirius red staining [1] | stellate cell activation and liver fibrogenesis by immunohistochemistry for α-SMA [1] | PA-induced VCAM-1 protein level (Western blot) [2] | PA-induced VCAM-1 mRNA expression ([2]; real-time qPCR) | LPC-induced activation of ITGβ1 (immunofluorescence microscopy) ([3]; 5 μM LPC 20 minutes) | LPC-induced increase in active ITGβ1 (9EG7 immunoprecipitation, immunoblot) ([3]; 20 μM LPC 15-30 min)
1 | CC(C)(Sc1cc(C(C)(C)C)c(O)c(C(C)(C)C)c1)Sc1cc(C(C)(C)C)c(OC(=O)CCC(=O)O)c(C(C)(C)C)c1 [AGI-1067, succinobucol] | reduced | reduced | attenuated | reduced | reduced | attenuated | reduced | did not alter | reduced | did not alter | did not reach the statistical significance | attenuated | attenuated | inhibits | inhibits | – | –
2 | C[S+]([O-])c1ccc(-c2nc(-c3ccncc3)c(-c3ccc(F)cc3)[nH]2)cc1 (centres unmarked) [SB203580] | – | – | – | – | – | – | – | – | – | – | – | – | – | – | – | diminished | reduced
